Assay results published in ChEMBL document CHEMBL1155358, “Unsaturated genistein disaccharide glycoside as a novel agent affecting microtubules” (2009).
Calls of active or inactive are those of the source. The rule behind the calls is not given here.

Key:
DU-145 [1] = test: Cell cycle arrest in human DU145 cells assessed as accumulation at G1 phase at 10 uM after 24 hrs by flow cytometry using propidium iodide staining; assay type: functional
DU-145 [2] = test: Cell cycle arrest in human DU145 cells assessed as accumulation between G1 phase and G2M phase at 10 uM after 24 hrs by flow cytometry using propidium iodide staining; assay type: functional
DU-145 [3] = test: Cell cycle arrest in human DU145 cells assessed as accumulation at G2M phase relative to control; assay type: functional
DU-145 [4] = test: Cell cycle arrest in human DU145 cells assessed as accumulation at < G2M phase at 10 uM after 24 hrs by flow cytometry using propidium iodide staining; assay type: functional
DU-145 [5] = test: Cell cycle arrest in human DU145 cells assessed as accumulation between G1 phase and G2M phase at 5 uM after 24 hrs by flow cytometry using propidium iodide staining; assay type: functional
DU-145 [6] = test: Cell cycle arrest in human DU145 cells assessed as accumulation at < G2M phase at 5 uM after 24 hrs by flow cytometry using propidium iodide staining; assay type: functional
DU-145 [7] = test: Cell cycle arrest in human DU145 cells assessed as accumulation at >G1 phase at 5 uM after 24 hrs by flow cytometry using propidium iodide staining; assay type: functional
DU-145 [8] = test: Cell cycle arrest in human DU145 cells assessed as accumulation at G1 phase at 5 uM after 24 hrs by flow cytometry using propidium iodide staining; assay type: functional
DU-145 [9] = test: Induction of apoptosis in human DU145 cells at interphase assessed as loosened of microtubule network at 5 uM after 24 hrs by beta tubulin immunofluorescent staining; assay type: functional, cell-based
DU-145 [10] = test: Cell cycle arrest in human DU145 cells assessed as accumulation at >G1 phase at 10 uM after 24 hrs by flow cytometry using propidium iodide staining; assay type: functional
DU-145 [11] = test: Induction of apoptosis in human DU145 cells at interphase assessed as complete disappearance of microtubules at 25 uM after 24 hrs by beta tubulin immunofluorescent staining; assay type: functional, cell-based
DU-145 [12] = test: Cell cycle arrest in human DU145 cells assessed as accumulation at G2M phase at 10 uM after 24 hrs by flow cytometry using propidium iodide staining; assay type: functional
DU-145 [13] = test: Cell cycle arrest in human DU145 cells assessed as accumulation at G2M phase at 5 uM after 24 hrs by flow cytometry using propidium iodide staining; assay type: functional
DU-145 [14] = test: Induction of apoptosis in human DU145 cells at interphase assessed as dencer microtubue network at 2 nM after 24 hrs by beta tubulin immunofluorescent staining; assay type: functional, cell-based
DU-145 [15] = test: Cell cycle arrest in human DU145 cells assessed as accumulation between G1 phase and G2M phase at 100 uM after 24 hrs by flow cytometry using propidium iodide staining; assay type: functional
DU-145 [16] = test: Cell cycle arrest in human DU145 cells assessed as accumulation at >G1 phase at 50 uM after 24 hrs by flow cytometry using propidium iodide staining; assay type: functional
DU-145 [17] = test: Cell cycle arrest in human DU145 cells assessed as accumulation at G2M phase at 100 uM after 24 hrs by flow cytometry using propidium iodide staining; assay type: functional
DU-145 [18] = test: Cell cycle arrest in human DU145 cells assessed as accumulation at < G2M phase at 100 uM after 24 hrs by flow cytometry using propidium iodide staining; assay type: functional
DU-145 [19] = test: Cell cycle arrest in human DU145 cells assessed as accumulation at G1 phase at 50 uM after 24 hrs by flow cytometry using propidium iodide staining; assay type: functional
DU-145 [20] = test: Cell cycle arrest in human DU145 cells assessed as accumulation at G1 phase at 100 uM after 24 hrs by flow cytometry using propidium iodide staining; assay type: functional
DU-145 [21] = test: Cell cycle arrest in human DU145 cells assessed as accumulation at >G1 phase at 100 uM after 24 hrs by flow cytometry using propidium iodide staining; assay type: functional
DU-145 [22] = test: Induction of apoptosis in human DU145 cells at interphase assessed as alteration in microtubule array at 100 uM after 24 hrs by beta tubulin immunofluorescent staining; assay type: functional, cell-based
DU-145 [23] = test: Cell cycle arrest in human DU145 cells assessed as accumulation between G1 phase and G2M phase at 50 uM after 24 hrs by flow cytometry using propidium iodide staining; assay type: functional
DU-145 [24] = test: Cell cycle arrest in human DU145 cells assessed as accumulation at < G2M phase at 50 uM after 24 hrs by flow cytometry using propidium iodide staining; assay type: functional
DU-145 [25] = test: Cell cycle arrest in human DU145 cells assessed as accumulation at G2M phase at 50 uM after 24 hrs by flow cytometry using propidium iodide staining; assay type: functional
DU-145 [26] = test: Induction of apoptosis in human DU145 cells at interphase assessed as curly appearance of microtubules at 1 nM after 24 hrs by beta tubulin immunofluorescent staining; assay type: functional, cell-based

CC(=O)OC[C@H]1O[C@@H](O[C@H]2C=C[C@@H](Oc3cc(O)c4c(=O)c(-c5ccc(O)cc5)coc4c3)O[C@@H]2COC(C)=O)[C@H](OC(C)=O)[C@@H](OC(C)=O)[C@H]1OC(C)=O
Activity (DU-145 [1]): 23.4% | Activity (DU-145 [2]): 11.4% | Activity (DU-145 [3]): 30% | Activity (DU-145 [4]): 1.7% | Activity (DU-145 [5]): 10.1% | Activity (DU-145 [6]): 1.4% | Activity (DU-145 [7]): 7.5% | Activity (DU-145 [8]): 26.5% | Activity (DU-145 [9]): Active | Activity (DU-145 [10]): 5.7% | Activity (DU-145 [11]): Active | Activity (DU-145 [12]): 57.8% | Activity (DU-145 [13]): 54.5%

CC(=O)O[C@H]1C(=O)[C@@]2(C)[C@H]([C@H](OC(=O)c3ccccc3)[C@]3(O)C[C@H](OC(=O)[C@H](O)[C@@H](NC(=O)c4ccccc4)c4ccccc4)C(C)=C1C3(C)C)[C@]1(OC(C)=O)CO[C@@H]1C[C@@H]2O
Activity (DU-145 [14]): Active

O=c1c(-c2ccc(O)cc2)coc2cc(O)cc(O)c12 [GENISTEIN]
Activity (DU-145 [15]): 20.8% | Activity (DU-145 [16]): 5.1% | Activity (DU-145 [17]): 27.2% | Activity (DU-145 [18]): 1.6% | Activity (DU-145 [19]): 55.9% | Activity (DU-145 [20]): 44.3% | Activity (DU-145 [21]): 6.1% | Activity (DU-145 [22]): inactive | Activity (DU-145 [23]): 19.2% | Activity (DU-145 [24]): 2.8% | Activity (DU-145 [25]): 17.1%

CC[C@]1(O)C[C@@H]2CN(CCc3c([nH]c4ccccc34)[C@@](C(=O)OC)(c3cc4c(cc3OC)N(C)[C@H]3[C@@](O)(C(=O)OC)[C@H](OC(C)=O)[C@]5(CC)C=CCN6CC[C@]43[C@@H]65)C2)C1
Activity (DU-145 [26]): Active
